US6680067B2 (priority 2001, dated 2004)
Structures can show the parent of a compound that is named as a salt.

Assays:
[1] = pharmacokinetics of nalbuphine in rat plasma after intramuscular injection; conditions: for k01: hydrochloride
Protocol: Each group consisted of 6 rats and each rat was injected once intramuscularly on the rear leg.

Sprague-Dawley rats = assay: rat cold ethanol tail-flick test (analgesic effect); assay type: in vivo; conditions: intramuscular, 25 μM/kg, FIG. 5
[2] = pharmacokinetics of nalbuphine in beagle plasma after intramuscular injection; conditions: for k01: hydrochloride
[3] = Shafer et al. 1991; cited from earlier work
[4] = male, Sprague-Dawley, rat, plasma, im, 24 mg/kg
[5] = beagle, dog, plasma, im, 5 mg/kg
[6] = beagles, i.m., dose 5 mg/kg, n = 5, mean ± S.E.

Oc1ccc2c3c1O[C@H]1[C@@H](O)CC[C@@]4(O)[C@@H](C2)N(CC2CCC2)CC[C@]314 [Nalbuphine-HCl, nalbuphine hydrochloride]
β or k10 ([1]; Sprague-Dawley rats, i.m., 24 mg/kg (FIG. 7), means ± S.E.): 0.43 ± 0.21 h⁻¹
k01 ([1]; Sprague-Dawley rats, i.m., 24 mg/kg (FIG. 7), means ± S.E., 24 mg/kg): 12.1 ± 14.1 h⁻¹
k01 ([1]; Sprague-Dawley rats, i.m., 24 mg/kg (FIG. 7), means ± S.E., listed as nalbuphine hydrochloride, 24 mg/kg): 12.1 ± 14.1 h⁻¹
AUC [1, 4]: 8040 ± 2880 ng·h/mL
CL/F [1, 4]: 58.3 mL/min/kg
Cmax [1, 4]: 2230 ± 669 ng/mL
MRT [1, 4]: 180 ± 72 min
Tmax [1, 4]: 27 ± 14.4 min
half-life ([1]; male, Sprague-Dawley, rat, plasma, im, 24 mg/kg, t1/2, k01, Sprague-Dawley rats, 24 mg/kg (FIG. 7), means ± S.E.): 8.4 ± 9 min
half-life ([1]; male, Sprague-Dawley, rat, plasma, im, 24 mg/kg, t1/2, β (elimination half-life), Sprague-Dawley rats, 24 mg/kg (FIG. 7), means ± S.E.): 114 ± 48 min
10% analgesic effect (duration) (Sprague-Dawley rats): 2.7 h
50% analgesic effect (duration) (Sprague-Dawley rats): 1.2 h
AUC [2, 5]: 1870 ± 203 ng·h/mL
CL/F [2, 5]: 46.7 mL/min/kg
Cmax [2, 5]: 2460 ± 755 ng/mL
MRT [2, 5]: 132 ± 30 min
Tmax [2, 5]: 5.4 ± 2.4 min
half-life ([2]; beagle, dog, plasma, im, 5 mg/kg, t1/2, k01, beagles, n = 5, mean ± S.E.): 7.2 ± 4.2 min
half-life ([2]; beagle, dog, plasma, im, 5 mg/kg, t1/2, α, beagles, n = 5, mean ± S.E.): 7.8 ± 6.6 min
half-life ([2]; beagle, dog, plasma, im, 5 mg/kg, t1/2, β (elimination half-life), beagles, n = 5, mean ± S.E.): 168 ± 54 min
α [2, 6]: 67.9 ± 29.3 h⁻¹
β [2, 6]: 0.42 ± 0.15 h⁻¹
k01 ([2]; beagles, i.m., dose 5 mg/kg, n = 5, mean ± S.E., listed as Nal-HCl): 82.5 ± 43.9 h⁻¹
k01 ([2]; beagles, i.m., dose 5 mg/kg, n = 5, mean ± S.E., listed as Nalbuphine HCl): 82.5 ± 43.9 h⁻¹
k01 ([2]; beagles, i.m., dose 5 mg/kg, n = 5, mean ± S.E., listed as nalbuphine hydrochloride): 82.5 h⁻¹

CN1CC[C@]23c4c5ccc(O)c4O[C@H]2[C@@H](O)C=C[C@H]3[C@H]1C5 [morphine]
dose needed to elicit the same analgesic effect [3]: 10 mg

Oc1ccc2c(c1)[C@@]13CCCC[C@@]1(O)[C@@H](C2)N(CC1CCC1)CC3 [butorphanol]
dose needed to elicit the same analgesic effect [3]: 2 mg
